Data published in patent US4452813A, “Sulfonate derivatives, process for preparing same and antilipemic compositions containing the derivative” (Taiho Pharmaceutical Company Limited, priority 1981, dated 1984).
Where two headings read alike, the source gives them in different places.

Legend:
[1] = background literature, cited from earlier work
[2] = target: esterase (purified microsome fraction of the liver of a rat); experiment: Esterase inhibiting activity (hydrolysis of methyl butyrate); assay type: biochemical; details: methyl butyrate substrate, pH 8.0, 37° C., 60 minutes
Protocol: 1. Esterase Inhibiting Activity
A 10 micromole quantity of methyl butyrate in a 50% ethanol solution is added as a substrate to a specified amount of buffer solution (pH 8.0) containing 0.1 mole of trishydrochloric acid. To the mixture is further added a 50% ethanol solution of the compound of the invention, immediately followed by addition of an esterase solution prepared from a purified microsome fraction of the liver of a rat (adjusted to hydrolyze 9 micromoles of methyl butyrate at 37° C. in one hour). The mixture is reacted at 37° C. for 60 minutes.
After the reaction, alkaline hydroxylamine is added to the mixture to form a hydroxamic acid derivative of methyl butyrate, and a ferric salt is added to the derivative. The resulting red color is colorimetrically determined (at a wavelength of 540 nm) to determine the amount of remaining methyl butyrate. The esterase inhibiting ratios of the present compound at least at three concentrations are plotted as ordinate, and the logarithms of the concentrations as abscissa to obtain a line, which gives the 50% inhibition concentration (IC50).

[3] = Acute toxicity, oral, one week; details: rat, in vivo, 5% gum arabic suspension
Text: Six-week-old male Wister rats weighing 180 to 200 g are used, 5 rats in each group. The present compound is suspended in a 5% aqueous solution of gum arabic, and the suspension is orally given to the rats. For one week after the start of the test, the rats are checked evey day for general toxicity symptoms, body weight and death to determine the LD50 value.

[4] = system: triglycerides content in the plasma; experiment: Antilipemic effect: inhibition of olive oil-induced hyperlipidemia, plasma triglycerides; assay type: in vivo, male Wister rats; details: Rattus norvegicus, 100 mg compound in 5 ml olive oil, 5 ml/kg oral, 2 hours, read-out: Antilipemic effect IGI (%) (percent hyperlipidemia inhibition, triglycerides)
Protocol: Seven-week-old male Wister rats weighing 200 to 220 g are used, 5 rats in each group.
The compound of the invention (100 mg) is dissolved in 5 ml of olive oil. The olive oil containing the compound is orally given to the rat with a probe at a dose of 5 ml/kg. Two hours thereafter, 6 ml of whole blood is withdrawn from the descending aorta of the rat under ether anesthesia with a syringe containing heparin. The blood is centrifuged at 5° C. and 3000 r.p.m. to obtain the plasma. The plasma collected is used for determining the triglycerides content, using a triglycerides measuring kit (trade mark "Triglycerides-B Test Wako," product of Wako Junyaku Co., Ltd., Japan). Olive oil containing no compound is similarly given to a control group, while no treatment is conducted for a normal group. The triglycerides content in the plasma is also determined for these groups in the same manner as is the case with the test groups.
The percent hyperlipidemia inhibition achieved by the present compound is given by [formula] in which A is the triglycerides content of the control group, B is the triglycerides content of the normal group, and C is the triglycerides content of the group to which the present compound is given.

Chymotripsin = Chymotripsin (Bos taurus, UniProt P00766); experiment: Chymotripsin inhibiting activity (hydrolysis of ATEE); assay type: biochemical; details: 0.5 h; 1 × 10^-4 mol; 20 min preincubation, ATEE 30 min, 37° C., pH 8.0
Protocol: 2. Chymotripsin Inhibiting Activity
Chymotripsin (0.1 unit) serving as an enzyme solution is added to a specified quantity of buffer solution (pH 8.0) containing 0.1 mole of trishydrochloric acid. To the mixture is further added a 50% ethanol solution of the compound of the invention. The mixture is reacted at 37° C. for 20 minutes.
On completion of the reaction, 10 micromoles of […] (ATEE) serving as a substrate is added to the mixture, and the resulting mixture is reacted at 37° C. for 30 minutes.
After the completion of the reaction, the amount of remaining ATEE is determined by the same hydroxamic acid method as above. The percent chymotripsin inhibition is given by [formula] wherein A is the amount of hydrolzed esters in the reaction system not containing the compound of the invention, and B is the amount of hydrolyzed esters in the reaction system containing the present compound.

SMILES	reported side effects (in words) [1]	reported side effects (in words) ([1]; listed as clofibrate)	IC50 [2] [µM]	LD50 at 168 h [3] [mg/kg]	inhibition in vivo at 100 mg/kg [4] [%]	inhibition at 100 µM (Chymotripsin) [%]
CCOC(=O)C(C)(C)Oc1ccc(Cl)cc1 [Clofibrate]	carcinogenic activity	increased sterol discharge				
O=C(O)c1cccnc1 [Nicotinic acid]	pruritus and cutaneous flushing due to vasodilatation, gastrointestinal disorders, abnormalities in liver function and glucose intolerance					
CCOc1ccc(S(=O)(=O)OCC(=O)CC(C)C2CCCCC2)cc1 (stereo not shown) [Compound 11]			7.2	> 3000	60	19
